These results are taken from patent US8618151B2, “Inhibitors of HCV NS5A” (Presidio Pharmaceuticals, Inc., priority 2008, dated 2013).

Bounds are passed on as bounds.

This experiment deals with HCV genotype 1b replicon. Description: HCV replicon assay (1b_Huh-Luc/Neo-ET cell line, luciferase readout). To be noted: Hepatitis C virus, Huh-7, 72 h, read-out: Inhibition of HCV genotype 1b. Type of experiment: cell-based. In outline: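 1b_Huh-Luc/Neo-ET Huh 7 cells carrying a bicistronic genotype 1b replicon; compounds added in triplicate the day after plating, 72 h incubation, then Bright-Glo luciferase read-out. Signal expressed as % of control; EC50 from curve fit, repeated several times.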
For the compound `COC(=O)N[C@H](C(=O)N1CCC[C@H]1c1nc(-c2ccc3cc(-c4ccc(-c5cnc([C@@H]6CCCN6C(=O)[C@@H](NC(=O)OC)C(C)C)[nH]5)nc4)ccc3c2)c[nH]1)C(C)C` [compound 83], the EC50 is less than 1 nM.

Regarding `COC(=O)N[C@H](C(=O)N1CCC[C@H]1c1ncc(-c2ccc(N3Cc4cc(-c5cnc([C@@H]6CCCN6C(=O)[C@@H](NC(=O)OC)C(C)C)[nH]5)ccc4C3=O)cc2)[nH]1)C(C)C` [compound 290], the EC50 is less than 1 nM.

With `CCNC(=O)N[C@@H](C(=O)N1CCC[C@H]1c1ncc(-c2ccc3nc(-c4ccc(-c5cnc([C@@H]6CCCN6C(=O)[C@@H](NC(=O)OC)C(C)C)[nH]5)cc4)sc3c2)[nH]1)c1ccccc1` [compound 244], the EC50 was less than 1 nM. Take `COC(=O)N[C@H](C(=O)N1CCC[C@H]1c1nc(-c2ccc3nc(-c4ccc(-c5cnc([C@@H]6CCCN6C(=O)[C@@H](NC(=O)OC)C(C)C)[nH]5)cc4)cnc3c2)c[nH]1)C(C)C` [compound 11]: the EC50 was less than 1 nM.

For the compound `COC(=O)N[C@H](C(=O)N1CCC[C@H]1c1nc(-c2cnc3cc(-c4ccc(-c5cnc([C@@H]6CCCN6C(=O)[C@H](NC(=O)OC)c6ccccc6)[nH]5)cc4)ccc3c2)c[nH]1)C1CCOCC1` [compound 71], the EC50 is less than 1 nM.

For `COC(=O)N[C@H](C(=O)N1CCC[C@H]1c1nc2ccc(-c3cccc4c(-c5cnc([C@@H]6CCCN6C(=O)[C@H](NC(=O)OC)c6ccccc6)[nH]5)cccc34)cc2[nH]1)C(C)C` [compound 208], the EC50 was less than 1 nM. Consider `COC(=O)N[C@H](C(=O)N1CCC[C@H]1c1ncc(-c2ccc3cc(-c4ccc(-c5cnc([C@@H]6CCCN6C(=O)[C@@H](NC(=O)OC)C6CCOCC6)[nH]5)cc4F)ncc3c2)[nH]1)C(C)C` [compound 151], for which the EC50 is less than 1 nM. Take `COC(=O)N[C@H](C(=O)N1CCC[C@H]1c1nc2ccc(-c3ccc4cc(-c5ccc6nc([C@@H]7CCCN7C(=O)[C@@H](NC(=O)OC)C7CCOCC7)[nH]c6c5)ccc4c3)cc2[nH]1)C(C)C` [compound 282]: the EC50 was less than 1 nM. For `COC(=O)N[C@H](C(=O)N1CCC[C@H]1c1ncc(-c2ccc(-c3ccc4cc(-c5c[nH]c([C@@H]6CCCN6C(=O)[C@H](NC(=O)OC)c6ccccc6)n5)cnc4c3)c(F)c2)[nH]1)C(C)C` [compound 58] the value was less than 1 nM; for `COC(=O)N[C@H](C(=O)N1CCC[C@H]1c1nc(-c2ccc3cc(-c4ccc(-c5cnc([C@@H]6CCCN6C(=O)[C@H](NC(=O)OC)c6ccccc6)[nH]5)cc4C)ccc3c2)c[nH]1)C(C)C` [compound 69], less than 1 nM. On to `COC(=O)N[C@H](C(=O)N1CCC[C@H]1c1nc(-c2cnc3cc(-c4ccc(-c5cnc([C@@H]6CCCN6C(=O)[C@H](NC(=O)OC)c6ccccc6)[nH]5)cc4)ccc3c2)c[nH]1)C(C)C` [compound 32], for which the EC50 was less than 1 nM. Turning to `COC(=O)N[C@H](C(=O)N1CCC[C@H]1c1nc2ccc(-c3ccc4nc(-c5cnc([C@@H]6CCCN6C(=O)[C@H](NC(=O)OC)c6ccccc6)[nH]5)ccc4c3)cc2[nH]1)C(C)C` [compound 210], the EC50 was less than 1 nM. With `COC(=O)N[C@H](C(=O)N1CCC[C@H]1c1nc(C2CNc3cc(-c4ccc(-c5cnc([C@@H]6CCCN6C(=O)[C@H](NC(=O)OC6CCOCC6)c6ccccc6)[nH]5)cc4)ccc3C2)c[nH]1)C(C)C` (some centres unmarked) [compound 291], the EC50 is less than 1 nM. For `CCNC(=O)N[C@@H](C(=O)N1CCC[C@H]1c1ncc(-c2ccc3nc(-c4ccc(-c5cnc([C@@H]6CCCN6C(=O)[C@@H](NC(=O)OC)C(C)C)[nH]5)cc4)oc3c2)[nH]1)c1ccccc1` [compound 252], the EC50 is less than 1 nM. Regarding `COC(=O)N[C@H](C(=O)N1CCC[C@H]1c1ncc(-c2ccc3cc(-c4ccc5nc([C@@H]6CCCN6C(=O)[C@H](NC(=O)OC)c6ccccc6)[nH]c5n4)ccc3c2)[nH]1)C(C)C` [compound 199], the EC50 was less than 1 nM. As to `COC(=O)N[C@H](C(=O)N1CCC[C@H]1c1nc2ccc(-c3ccc4cc(-c5cnc([C@@H]6CCCN6C(=O)[C@@H](NC(=O)OC)C6CCOCC6)[nH]5)ccc4c3)cc2[nH]1)C(C)C` [compound 190], the EC50 was less than 1 nM.

As to `CNC(=O)N[C@@H](C(=O)N1CCC[C@H]1c1nc(-c2ccc3cc(-c4ccc(-c5cnc([C@@H]6CCCN6C(=O)[C@@H](NC(=O)OC)C(C)C)[nH]5)cc4)ccc3c2)c[nH]1)c1ccccc1` [14s], the EC50 was less than 1 nM.

Regarding `COC(=O)N[C@H](C(=O)N1CCC[C@H]1c1ncc(-c2ccc3cc(-c4ccc5nc([C@@H]6CCCN6C(=O)[C@H](NC(=O)N6CC[C@H](O)C6)c6ccccc6)[nH]c5c4)ccc3c2)[nH]1)C(C)C` [compound 185], the EC50 is less than 1 nM. Take `COC(=O)N[C@H](C(=O)N1CCC[C@H]1c1nc2ccc(-c3cccc4c(-c5ccc6nc([C@@H]7CCCN7C(=O)[C@@H](NC(=O)OC)C(C)C)[nH]c6c5)cccc34)cc2[nH]1)C(C)C` [compound 277]: the EC50 is less than 1 nM. In the case of `COC(=O)N[C@H](C(=O)N1CCC[C@H]1c1ncc(-c2ccc(-c3ccc4cc(-c5c[nH]c([C@@H]6CCCN6C(=O)[C@H](NC(=O)OC)c6ccccc6)n5)ccc4n3)cc2)[nH]1)C1CCOCC1` [compound 90], the EC50 is less than 1 nM. As to `COC(=O)N[C@H](C(=O)N1CCC[C@H]1c1nc2ccc(-c3cccc4c(-c5cnc([C@@H]6CCCN6C(=O)[C@@H](NC(=O)OC)C6CCOCC6)[nH]5)cccc34)cc2[nH]1)C(C)C` [compound 215], the EC50 was less than 1 nM. As to `COC(=O)N[C@H](C(=O)N1CCC[C@H]1c1ncc(-c2cccc(-c3cccc4cc(-c5cnc([C@@H]6CCCN6C(=O)[C@@H](NC(=O)OC)C(C)C)[nH]5)ccc34)c2)[nH]1)C(C)C` [compound 130], the EC50 is less than 1 nM. For `COC(=O)N[C@H](C(=O)N1CCC[C@H]1c1nc(-c2ccc3cc(-c4ccc(-c5cnc([C@@H]6CCCN6C(=O)[C@@H](NC(=O)OC)[C@@H](C)O)[nH]5)cc4)ccc3c2)c[nH]1)[C@@H](C)O` [compound 4] the value was less than 1 nM; for `COC(=O)N[C@H](C(=O)N1CCC[C@H]1c1nc(-c2ccc3nc(-c4ccc(-c5cnc([C@@H]6CCCN6C(=O)[C@@H](NC(=O)OC)C6CCOCC6)[nH]5)c(F)c4)ccc3c2)c[nH]1)C1CCOCC1` [compound 108], less than 1 nM; for `COC(=O)N[C@H](C(=O)N1C[C@H](O)C[C@H]1c1ncc(-c2ccc(-c3ccc4cc(-c5cnc([C@@H]6CCCN6C(=O)[C@H](NC(=O)OC6CCOCC6)c6ccccc6)[nH]5)ccc4n3)cc2)[nH]1)C(C)C` [compound 149], less than 1 nM.

Take `COC(=O)N[C@H](C(=O)N1CCC[C@H]1c1ncc(-c2ccc(-c3nc4ccc(-c5cnc([C@@H]6CCCN6C(=O)[C@H](NC(=O)OC)c6ccccc6)[nH]5)cc4s3)cc2)[nH]1)C(C)C` [compound 241]: the EC50 is less than 1 nM. With `COC(=O)N[C@H](C(=O)N1CCC[C@H]1c1nc(-c2ccc3cc(-c4ccc(-c5cnc([C@@H]6CCCN6C(=O)[C@H](NC(=O)OC)c6ccccc6)[nH]5)cc4F)ccc3c2)c[nH]1)C(C)C` [compound 64], the EC50 was less than 1 nM. On to `COC(=O)N[C@H](C(=O)N1CCC[C@H]1c1nc(-c2ccc3cc(-c4ccc(-c5cnc([C@@H]6CCCN6C(=O)[C@H](NC(=O)N6CC[C@H](O)C6)c6ccccc6)[nH]5)cc4)ccc3c2)c[nH]1)C(C)C` [compound 16], for which the EC50 was less than 1 nM.

As to `COC(=O)N[C@H](C(=O)N1CCC[C@H]1c1ncc(-c2ccc(-c3ccc4cc(-c5c[nH]c([C@@H]6CCCN6C(=O)[C@@H](NC(=O)OC)C6CCOCC6)n5)cnc4c3)cc2)[nH]1)C(C)C` [compound 50], the EC50 was less than 1 nM.
